Laboratory results as given in paper PMC12016938, “A small molecule PKCε inhibitor reduces hyperalgesia induced by paclitaxel or opioid withdrawal” (JCI Insight, 2025).
pIC50: −log10 of the molar value. Where “and” joins values, the source holds several entries; their conditions need not be identical. Equal entries are not always repeated.

What was measured:
[1] = tested on: hyperalgesia induced by morphine withdrawal; assay: Prevention of hyperalgesia due to morphine withdrawal, von Frey SUDO; type: in vivo, C57BL/6J mice; details: for von Frey filament number that led to paw withdrawal: prevention, individual mouse
Source text: We next investigated if CP612 prevents hyperalgesia induced by withdrawal from repeated administration of morphine, in male and female C57BL/6J mice. […] These findings indicate that a single dose of the PKCε inhibitor can prevent hyperalgesia induced by opioid withdrawal.

[2] = tested on: conditioned place aversion; assay: Conditioned place aversion precipitated by naloxone; type: in vivo, DBA/2J mice; details: for Preference score: individual mice, time in environment paired with naloxone (5 mg/kg, i.p.) minus time in it at baseline, negative = aversion
Protocol: In addition to hyperalgesia, withdrawal from repeated administration of morphine produces somatic signs of withdrawal and conditioned place aversion. We tested the effects of CP612 on these responses. […] Two hours after this last injection of saline or morphine, mice were administered naloxone (5 mg/kg, i.p.) to precipitate somatic signs of withdrawal and conditioned place aversion. Withdrawal from repeated administration of morphine evoked somatic signs of withdrawal (Figure 11, A–C, and Supplemental Figure 2); only the highest dose of CP612 (40 mg/kg) reduced them (Figure 11, A–C) [H PKC inhibition (3, n = 62) = 33.34, P < 0.001]. Withdrawal from repeated administration of morphine also evoked conditioned place aversion (Figure 11, A and C) [F PKC inhibition (5,78) = 7.16, P < 0.001; mice receiving repeated administration of saline with vehicle versus mice receiving repeated administration of morphine with vehicle, P < 0.001], and this was not modified by CP612 at any dose tested (all P > 0.079).
The place conditioning apparatus was an acrylic box enclosed in light- and sound-attenuating, ventilated chambers (MED Associates). The box had 2 compartments separated by a removable sliding door. […] The dimensions of each compartment were 13.5 × 27 × 17 cm. Infrared light beams and photodetectors located along the walls of the box measured general activity and location of the mouse in each compartment, which were recorded using Activity Monitor version 7.0.5.10 software (Med Associates). On day 0 (pretest), drug-naive mice were acclimated for 15 minutes to the place conditioning apparatus without the sliding door, so they had free access to both compartments of the apparatus. This established a baseline side preference, based on the amount of time spent in each compartment. […] On day 6 (conditioning day), mice were pretreated with vehicle (10 mL/kg, i.p.) or CP612 (5, 10, 20, or 40 mg/kg, i.p.), followed by a single injection of morphine (100 mg/kg, i.p.) 4 hours later. Two hours after this last injection of morphine, mice were administered naloxone (5 mg/kg, i.p.), to precipitate withdrawal, and were immediately confined to 1 side of the conditioning apparatus for 20 minutes. During this conditioning period, mice were filmed (Raspberry Pi Camera) to assess somatic signs of withdrawal ([39]). Given the limited number of cameras and the poor quality of some videos, we were only able to film a subset of mice. The following behaviors were given a score of 1 per occurrence and episode: body shakes (paw tremors and wet dog shakes), teeth chatter, rearing, hopping, wall climbing, and backpedaling. These scores were summed to obtain a global withdrawal score and were obtained from an independent observer who was blind to the experimental conditions. A subset of videos was scored by 2 observers, to ensure internal validity (Cronbach’s α = 0.980, Correlation Observer r = 0.97, slope 1.15, P < 0.005). On day 7 (test day), mice were placed in the conditioning apparatus with free access to both compartments, for 15 minutes. We recorded the time spent in each compartment.

PKCθ = PKCθ (Homo sapiens, UniProt Q04759); assay: Lance-FRET kinase assay, PKCθ; type: biochemical; set-up: purchased SignalChem Biotech
Protocol: Kinase assays. CP612 was assayed against His-AVI–tagged human PKCε (1 nM) produced in Sf9 cells, and ROCK1 (Carna Biosciences; 5 nM) using the Lance-FRET kinase assay system (PerkinElmer Revvity). Other human recombinant PKCs (SignalChem Biotech) were assayed in triplicate at the following concentrations: PKCβII 1.6 nM, PKCγ 500 pM, PKCδ 5 nM, PKCθ 500 pM, and PKCζ 500 pM. PKCs were incubated in a 15 μL reaction volume with kinase buffer (20 mM Tris-HCL [pH 7.4], 10 mM MgCl2, 0.25 mM EGTA, 0.1 mg/mL BSA, and 0.15% Triton X-100), 50 nM ULight-labeled CREBtide […] (PerkinElmer, TRF0107, Revvity), and test compound. […] After incubation at 27°C for another 60 minutes, phosphorylation was detected using a FlexStation 3 Microplate Reader (Molecular Devices) in LANCE TR-FRET mode (excitation = 340 nm, emission = 665 nm) and expressed as relative fluorescence units (RFU). The percentage of inhibition was calculated as: (signal without test compound − signal with test compound)/(signal without test compound − signal without ATP) × 100. […]
Kinase assays used 11-point concentration-response curves and results were analyzed by nonlinear regression using Prism 9 (GraphPad Software) to determine IC50 values. […] Scores for pain threshold, conditioned place preference, and self-administration were analyzed by ANOVA using the following factors. […]

PKCθ, sequence (Q04759 whole entry): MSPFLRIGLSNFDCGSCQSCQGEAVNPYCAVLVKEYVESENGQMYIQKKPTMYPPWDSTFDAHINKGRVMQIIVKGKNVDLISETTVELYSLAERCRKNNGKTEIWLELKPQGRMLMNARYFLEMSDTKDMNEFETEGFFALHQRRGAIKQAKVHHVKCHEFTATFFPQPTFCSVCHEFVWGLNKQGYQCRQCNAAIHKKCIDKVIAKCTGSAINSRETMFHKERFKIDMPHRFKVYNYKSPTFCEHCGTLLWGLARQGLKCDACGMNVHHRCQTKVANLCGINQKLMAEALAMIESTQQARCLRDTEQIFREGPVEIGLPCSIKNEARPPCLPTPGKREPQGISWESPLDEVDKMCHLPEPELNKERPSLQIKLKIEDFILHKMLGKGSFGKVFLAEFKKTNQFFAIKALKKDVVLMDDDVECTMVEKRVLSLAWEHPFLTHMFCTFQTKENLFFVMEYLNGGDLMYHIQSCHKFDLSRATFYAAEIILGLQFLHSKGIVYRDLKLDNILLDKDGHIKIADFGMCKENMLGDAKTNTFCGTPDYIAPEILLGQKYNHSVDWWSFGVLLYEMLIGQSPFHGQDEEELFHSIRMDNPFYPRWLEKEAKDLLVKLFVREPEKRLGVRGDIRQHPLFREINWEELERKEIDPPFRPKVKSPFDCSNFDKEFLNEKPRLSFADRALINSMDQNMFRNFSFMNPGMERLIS

N[C@H](CNC(=O)C1(c2ccc(Cl)cc2)CCCC1)c1ccc(C(=O)Nc2ccncc2)cc1 [CP612]
Effect on pain thresholds after repeated saline ([1]; male and female mice, CP612 20 mg/kg i.p.): not modified | Effect on development of morphine-withdrawal hyperalgesia ([1]; male and female mice, CP612 20 mg/kg i.p. 6 hours after last morphine injection): prevented | von Frey filament number that led to paw withdrawal ([1]; female mice, Morphine schedule, 1week): 9 and 8 | von Frey filament number that led to paw withdrawal ([1]; female mice, Morphine schedule, 2weeks): 8.75 | von Frey filament number that led to paw withdrawal ([1]; female mice, Morphine schedule, 3weeks): 8.5 | von Frey filament number that led to paw withdrawal ([1]; female mice, Morphine schedule, 4weeks): 8.5 | von Frey filament number that led to paw withdrawal ([1]; female mice, Morphine schedule, 24h): 7.5 and 9.5 | von Frey filament number that led to paw withdrawal ([1]; female mice, Morphine schedule, Baseline): 9 and 9.5 | von Frey filament number that led to paw withdrawal ([1]; female mice, Saline schedule, 1week): 9.5 and 9 and 8.5 and 10 | von Frey filament number that led to paw withdrawal ([1]; female mice, Saline schedule, 2weeks): 9.5 and 9 and 10 | von Frey filament number that led to paw withdrawal ([1]; female mice, Saline schedule, 3weeks): 9 and 9.5 and 10 | von Frey filament number that led to paw withdrawal ([1]; female mice, Saline schedule, 4weeks): 9.5 and 9 and 10 | von Frey filament number that led to paw withdrawal ([1]; female mice, Saline schedule, 24h): 9 and 8 and 8.5 and 10 | von Frey filament number that led to paw withdrawal ([1]; female mice, Saline schedule, Baseline): 9.5 and 8.5 and 9 and 10 and 10.5 | von Frey filament number that led to paw withdrawal ([1]; male mice, Morphine schedule, 1week): 9.5 and 7.5 and 8.5 and 9 and 8 and 10 | von Frey filament number that led to paw withdrawal ([1]; male mice, Morphine schedule, 2weeks): 9 and 7.5 and 8 and 9.5 and 9.25 and 7.75 and 10.5 | von Frey filament number that led to paw withdrawal ([1]; male mice, Morphine schedule, 3weeks): 8 and 9 and 9.5 and 10.5 | von Frey filament number that led to paw withdrawal ([1]; male mice, Morphine schedule, 4weeks): 8 and 7.5 and 9.5 and 9 and 11 and 10 | von Frey filament number that led to paw withdrawal ([1]; male mice, Morphine schedule, 24h): 8.5 and 7.5 and 9.5 and 8 and 7 and 10.5 | von Frey filament number that led to paw withdrawal ([1]; male mice, Morphine schedule, Baseline): 7.5 and 7 and 8.5 and 9.5 and 9 | von Frey filament number that led to paw withdrawal ([1]; male mice, Saline schedule, 1week): 9 and 8.5 and 9.5 and 10.5 and 10 | von Frey filament number that led to paw withdrawal ([1]; male mice, Saline schedule, 2weeks): 6.5 and 7 and 9 and 8.5 and 8 and 9.5 and 10 | von Frey filament number that led to paw withdrawal ([1]; male mice, Saline schedule, 3weeks): 9.5 and 9 and 10 | von Frey filament number that led to paw withdrawal ([1]; male mice, Saline schedule, 4weeks): 8 and 6.5 and 6 and 9 and 7.5 and 9.5 and 10 and 10.5 | von Frey filament number that led to paw withdrawal ([1]; male mice, Saline schedule, 24h): 7.5 and 7 and 9 and 9.5 and 10 | von Frey filament number that led to paw withdrawal ([1]; male mice, Saline schedule, Baseline): 7.5 and 8.5 and 6.5 and 8 and 9 and 9.5 and 10.5 | Duration of prevention of hyperalgesia after administration ([1]; single dose CP612 20 mg/kg i.p.): up to 4 weeks | Preference score ([2]; Morphine + CP612 5 mg/kg): -0.0843 and -0.28 and -0.22 and -0.17 and -0.023 and -0.35 | Preference score ([2]; Morphine + CP612 10 mg/kg): -0.07 and -0.22 and -0.42 and -0.21 and -0.19 and -0.38 and -0.15 and -0.12 and 0.14 and -0.13 and -0.10 and 0.0341 and -0.23 | Preference score ([2]; Morphine + CP612 20 mg/kg): -0.0656 and -0.40 and -0.13 and -0.25 and -0.10 and -0.30 and -0.31 | Preference score ([2]; Morphine + CP612 40 mg/kg): -0.17 and -0.18 and -0.35 and -0.39 and 0.000111 and -0.22 and 0.013 and -0.28 and -0.25 and -0.09 and -0.27 | Effect on conditioned place aversion ([2]; male DBA/2J mice, CP612 5, 10, 20, 40 mg/kg i.p.): not modified | inhibition at 0.03 µM (PKCθ; 30 nM CP612, read-out: Inhibition of novel PKCs (PKCθ)): > 50% | pIC50 (PKCθ; Figure 1B PKC isozyme panel): 7.51
